{
  "source": "patent US20030134901A1",
  "about": "“Lipoxin compounds and their use in treating cell proliferative disorders” (priority 1993, published 2003)",
  "key": {"A549 cells": {"system": "A549 cells", "assay": "15-HETE generation by IL-1β-treated A549 cells", "assay_type": "cell-based, human", "settings": "permeabilized IL-1β-treated A549 cells, arachidonic acid 20 μM", "method": "FIG. 3 is a graph showing the relative chiralities of 15-HETE triggered by ASA. A549 cells (10^7 cells per flask) were exposed to IL-1β (1 ng/ml) for 24 h, treated with vehicle (0.1% vol/vol ethanol) (□) or ASA (▪) for 20 min and then incubated (30 min, 37° C.) in HBSS containing arachidonic acid (20 μM) and A23187 (5 μM). Products were chromatographed by RP-HPLC (as in FIG. 1B) and the region containing 15-HETE was collected, extracted with chloroform and treated with diazomethane. Chiral analysis was performed with a Bakerbond DNBPG (see Methods for details). Results are representative of two separate experiments showing similar results.\nIn incubations involving permeabilized A549 cells (prepared by a rapid freeze-thaw cycle), IL-1β-treated (1 ng/ml, 24 h) A549 cells (1.5×10^6 cells/ml) were pretreated for 20 min with either vehicle (0.1% EtOH), ASA (500 (M; used throughout), 5 (M 17-ODYA, an inhibitor of cytochrome P450, (Muerhoff A. S., et al. (1989) Prostaglandin and fatty acid ω and (ω-1)-oxidation in rabbit lung: acetylenic fatty acid mechanism-based inactivators as specific inhibitors. J Biol.Chem. 244: 749-756.), or […] Rev 5901 isomer, a 5-LO inhibitor, subjected to two cycles of rapid freezing in a dry ice-acetone bath and thawing to room temperature (full cycle <20 min), and incubated with arachidonic acid ([…] for 20 min at 37° C. in 4 ml of DPBS^2+. In experiments involving radiolabeled arachidonic acid, incubations were initiated with the addition of [^3H]-arachidonic acid (0.25 (Ci/ml) plus unlabeled arachidonic acid ([…] for 20 min at 37° C.\nFor time-course experiments involving the generation of 15-HETE from endogenous sources (see FIG. 2B), intact A549 cells were exposed to IL-1β (1 ng/ml) for up to 48 h and then treated with vehicle (containing 0.1% EtOH) or ASA for 20 min followed by addition of ionophore A23187 (5 μM) in 4 ml of HBSS for 30 min at 37° C.\nThe monohydroxy eicosanoids (i. e. 5-, 12- and 15-HETE) from A549 cells were analyzed using a Ultrasphere-ODS column (5 μm, 4.6 mm×25 cm) (Beckman Instruments, Fullerton, Calif.) was eluted with MeOH/H2O/acetic acid (65:35:0.01; v/v/v) as phase one (t0-20 min), and a linear gradient with MeOH/acetic acid (99.9:0.1, v/v) as phase two (20-45 min) at a flow rate of 1.0 ml/min. The R- and S-enantiomers of 15-HETE were resolved and identified using a chiral HPLC system similar to that reported by Hawkins et al. (1988). […] When indicated, generation of 15-HETE from endogenous sources was monitored by radioimmunoassay (RIA). […]"}, "[1]": {"system": "HUVEC (putative LTD4 receptors)", "assay": "3H-LXA4 specific binding to HUVEC", "design": "species or system human", "method": "Cell cultures and differentiation. HL-60 cells were seeded in RPMI medium supplemented with 100 U/ml penicillin, 100 μg/ml streptomycin, and 10% fetal calf serum (Hyclone, Logan, Utah), incubated at 37° C. with 5% CO2 atmosphere in 250 ml flasks. […] Human umbilical vein endothelial cells (HUVEC) maintained in culture third passage were obtained from Dr. M. Gimbrone (Brigham and Women's Hospital Department of Pathology).\nBinding experiments with HUVEC cells were performed in 12 well plates with 3.5×10^5 cells/well. After 10 min, wells were washed twice with PBS and cell-associated label was recovered by adding glacial acetic acid (0.5 ml). Results obtained from these assays were submitted for further analysis using the Ligand program (Elsevier-Biosoft, Cambridge, UK)."}, "[2]": {"biological_target": "T1, LXA4 specific binding sites of differentiated HL-60 cells (Homo sapiens, UniProt P25090)", "T1 construct": "endogenous in cells; host or cells: HL-60 cells differentiated with DMSO, retinoic acid or PMA; intact cells", "T1 sequence (P25090 1-351)": "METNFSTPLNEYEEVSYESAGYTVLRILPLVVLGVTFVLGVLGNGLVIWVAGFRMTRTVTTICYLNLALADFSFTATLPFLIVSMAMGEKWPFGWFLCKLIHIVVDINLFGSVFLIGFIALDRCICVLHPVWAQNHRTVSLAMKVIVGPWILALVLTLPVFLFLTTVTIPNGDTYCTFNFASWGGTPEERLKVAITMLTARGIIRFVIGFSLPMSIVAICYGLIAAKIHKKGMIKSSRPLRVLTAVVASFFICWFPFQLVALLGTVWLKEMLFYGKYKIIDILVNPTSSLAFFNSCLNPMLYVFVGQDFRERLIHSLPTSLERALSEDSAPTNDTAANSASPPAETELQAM", "assay": "3H-LXA4 specific binding to differentiated HL-60 cells", "method": "Preparation of [11,12-^3H]LXA4. Tritiation of 11,12-acetylenic LXA4 methyl ester was carried out under a custom tritiation service (NET-259:92-2326) by New England Nuclear (Boston, Mass.). Briefly, 11,12-acetylene methyl ester was characterized by UV absorbance and reverse-phase HPLC as in (Nicolaou, K. C. et al. (1985) J. Am. Chem. Soc. 107:7515) and exposed to tritium atmosphere in methylene chloride at room temperature. This incubation was stirred in the presence of Lindlar catalyst (1.0 mg from Fluka Chemicals) for˜1 h. The resulting mixture was stored in methanol and isolated using RP-HPLC. Tritiated products were chromatographed as methyl esters utilizing a gradient HPLC system equipped with a photodiode array rapid spectral detector (Serhan, C. N., Methods in Enzymology: Arachidonate Related Lipid Mediators, in Murphy R. C., Fitzpatrick, F. (eds.), vol. 187. Orlando, Fla., Academic, (1990), p. 167). This mixture contained both [11,12-^3H]LXA4 and [11,12-^3H]-11-trans-LXA4 methyl esters (˜1:3 ratio) as determined by coelution with synthetic standards. After RP-HPLC, fractions containing [11,12-^3H]LXA4 were collected, and extracted into ethyl acetate. The free acid was prepared by LiOH saponification (Fiore, S. et al. (1992) J. Biol. Chem. 267:16168). Material from these fractions, when injected into UV-electrochemical detection HPLC, gave greater than 90% of radioactivity associated with a tetraene-containing product that coeluted with synthetic LXA4. Materials that eluted with the retention time of authentic LXA4 in two HPLC systems were taken for binding experiments. The specific activity calculated for [11,12-^3H]LXA4 was 40.5 Ci/mmole.\nCell cultures and differentiation. HL-60 cells were seeded in RPMI medium supplemented with 100 U/ml penicillin, 100 μg/ml streptomycin, and 10% fetal calf serum (Hyclone, Logan, Utah), incubated at 37° C. with 5% CO2 atmosphere in 250 ml flasks. Individual flasks containing ˜[…] next received dimethyl sulfoxide (DMSO) (1.12% v/v, 120 h) or retinoic acid (RA) (1 μM, 120 h) or phorbol myristate acetate (PMA) (20 nM, 48 h). Before performing binding assays, cells were washed twice in phosphate buffered saline (PBS), Ca^2+- and Mg^2+-free, enumerated and suspended at 20×10^6 cells/ml in Tris buffer (10 mM), pH 7.4 (Fiore, S. et al.(1992) J. Biol. Chem. 267:16168). Nitro blue tetrazolium reduction was performed to monitor induction of polymorphonuclear phenotype as in (Imaizumi, M. and Breitman, T. R. (1986) Blood 67:1273), and cell adherence was determined for induction of macrophage-like phenotype (Collins, S. J. (1987) Blood 70:1273). Human umbilical vein endothelial cells (HUVEC) maintained in culture third passage were obtained from Dr. M. Gimbrone (Brigham and Women's Hospital Department of Pathology).\nLigand binding. ^3H-LXA4 and ^3H-LTB4 binding was performed essentially as in Fiore, S. et al.(1992) J. Biol. Chem. 267:16168. After suspending cells in Tris buffer 10 mM (pH 7.4, Ca^2+ 2.5 mM, Mg^2+ 1.2 mM), aliquots (0.5 ml) were incubated (20 min at 4° C.) with ^3H- ligands alone (0.3 nM) or in the presence of increasing concentrations of homoligands or other compounds (3-300 nM). The incubations were rapidly centrifuged (60 sec, 12,000 g) on silicon oil (d=1.028), and cell-associated radioactivity was determined by liquid scintillation counting (Wallac 1409, Pharmacia, Piscataway, N.J.). Binding experiments with HUVEC cells were performed in 12 well plates with 3.5×10^5 cells/well. After 10 min, wells were washed twice with PBS and cell-associated label was recovered by adding glacial acetic acid (0.5 ml). Results obtained from these assays were submitted for further analysis using the Ligand program (Elsevier-Biosoft, Cambridge, UK)."}},
  "data": [
    {"smiles": "C#CCCCCCCCCCCCCCCCC(=O)O", "note": "[17-ODYA, 17-octadecaynoic acid]", "values": [
      {"measurement": "reduction in 15-HETE", "setting": "A549 cells", "result": "~50", "unit": "%"}
    ]},
    {"smiles": "CCCCC/C=C\\C\\C=C/C=C/C=C/[C@@H](SC[C@H](N)C(=O)NCC(=O)O)[C@@H](O)CCCC(=O)O", "note": "[LTD4]", "values": [
      {"measurement": "competition of specific 3H-LXA4 binding", "setting": "[1]", "result": "effective in competing"}
    ]},
    {"smiles": "O=C(O)CCS[C@H](c1ccccc1CCCCCCCCc1ccccc1)[C@@H](O)C(=O)O", "note": "[SKF 104353]", "values": [
      {"measurement": "displacement of 3H-LXA4 specific binding", "setting": "[2]; competition, competitor 300 nM where printed", "result": "did not displace"},
      {"measurement": "competition of specific 3H-LXA4 binding", "setting": "[1]", "result": "effective in competing"}
    ]},
    {"smiles": "[3H]C(/C=C/C=C/[C@@H](O)[C@@H](O)CCCC(=O)O)=C([3H])/C=C/[C@@H](O)CCCCC", "note": "[[11,12-^3H]LXA4]", "values": [
      {"measurement": "Kd", "setting": "[2]; isotherm binding, 4° C., 10 min, 0.1-30 nM", "result": "0.6 ± 0.3", "unit": "nM"},
      {"measurement": "Kd", "setting": "[1]", "result": "11 ± 2.6", "unit": "nM"}
    ]}
  ]
}
